Non-standard residues stand in square brackets, D forms with d. Residues, ends and D or L forms follow the SMILES beside them. *: point of attachment. NHPhenethyl = c1ccc(CCN*)cc1; Dap = NC[CH](N)C(=O)O; NHBn = c1ccc(CN*)cc1
Assays:
[1] = test system: co-culture model of human muscle cells and neurons from the spinal marrow of rat embryos; test: Efficacy test: frequency of muscle contractions in a nerve-muscle co-culture model; assay type: cell-based, human (myoblasts), rat (embryo spinal explants); conditions: for Variation Δ [in %] of the number of muscle contractions (1 min): 1 minute after incubation; for Variation Δ [in %] of the number of muscle contractions (1 min) / Variation Δ [in %] of the number of muscle contractions (2 h) / Variation Δ [in %] of the number of muscle contractions (48 h): contractions counted for 30 seconds, compared to number before incubation, means of 3 measurements; for Variation Δ [in %] of the number of muscle contractions (2 h): 2 hours after incubation; for Variation Δ [in %] of the number of muscle contractions (48 h): 48 hours after incubation
Procedure: Culture conditions: 37° C., 5% CO2 In order to test the efficacy of the compounds of the present invention, a co-culture model of human muscle cells on one hand and neurons from the spinal marrow of rat embryos on the other hand was established. Normal human muscle cells (myoblasts) were cultured in gelatine-coated 24-well plates until a monolayer of myofibrils (from fused muscle cells) had formed. Afterwards, an explant of the spinal marrow of a 13 day-old rat embryo with dorsal root ganglia was placed on the muscle cell monolayer. After one day of co-culture, the first axons were seen to grow out of the explant to come in contact with muscle cells. The first contractions appeared after 5 days. […] At this stage of development, the myofibrils performed regular contractions and the model was used for the tests.

[2] = test system: Ca++-dependent neurotransmitter release in the synapses; conditions: cited from earlier work

Structure (SMILES)	Variation Δ [in %] of the number of muscle contractions (1 min) ([1]; 0.1 mM) [%]	Variation Δ [in %] of the number of muscle contractions (2 h) ([1]; 0.1 mM) [%]	Variation Δ [in %] of the number of muscle contractions (48 h) ([1]; 0.1 mM) [%]	Variation Δ [in %] of the number of muscle contractions (1 min) ([1]; 0.5 mM) [%]	Variation Δ [in %] of the number of muscle contractions (2 h) ([1]; 0.5 mM) [%]	Variation Δ [in %] of the number of muscle contractions (48 h) ([1]; 0.5 mM) [%]	Variation Δ [in %] of the number of muscle contractions (1 min) ([1]; 1.0 mM) [%]	Variation Δ [in %] of the number of muscle contractions (2 h) ([1]; 1.0 mM) [%]	Variation Δ [in %] of the number of muscle contractions (48 h) ([1]; 1.0 mM) [%]	acts weaker than Botox (factor) [2] [times]	Variation Δ [in %] of the number of muscle contractions (1 min) ([1]; 0.05 mM) [%]	Variation Δ [in %] of the number of muscle contractions (2 h) ([1]; 0.05 mM) [%]	muscle-relaxing effect / activity profile with regard to muscle relaxation ([1]; result in words)
N=C(N)NCCCC(NC(=O)C1CCCN1C(=O)C(N)CN)C(=O)NCc1ccccc1 (stereo not drawn) [4.6] (H-[Dap]-Pro-Arg-NHBn; configuration not given here)	85	68	43	78	42	0	68	35	0	–	–	–	–
CC(N)C(=O)N1CCCC1C(=O)NC(CCCNC(=N)N)C(=O)NC(CCCNC(=N)N)C(=O)NCc1ccccc1 (stereo not shown) [4.3] (H-APRR-NHBn; configuration not given here)	91	5	88	73	1	87	25	0	7	–	–	–	–
CC(N)C(=O)N1CCCC1C(=O)NC(CCCNC(=N)N)C(=O)NCc1ccccc1 (stereo not drawn) [4.2] (H-Ala-Pro-Arg-NHBn; configuration not given here)	85	78	37	93	37	36	85	12	60	–	–	–	–
CSCC[C@H](NC(=O)[C@H](CCC(=O)O)NC(=O)[C@H](CCC(=O)O)NC(C)=O)C(=O)N[C@@H](CCC(N)=O)C(=O)N[C@@H](CCCNC(=N)N)C(=O)N[C@@H](CCCNC(=N)N)C(N)=O [Product A, Ac-Glu-Glu-Met-Gln-Arg-Arg-NH2, reference compound] (Ac-EEMQRR-NH2)	103	120	–	106	91	–	99	88	–	5000	103	96	too weak and too inconstant
C[C@H](N=C(N(C)C)N(C)C)C(=O)N1CCC[C@@H]1C(=O)N[C@@H](CCCNC(=N)N)C(=O)NCc1ccccc1 [4.11]	105	75	96	105	16	22	104	7	0	–	–	–	–
CC(N)C(=O)N1CCCC1C(=O)NC(CCCNC(=N)N)C(=O)NCCc1ccccc1 (stereo not drawn) [4.7] (H-Ala-Pro-Arg-NHPhenethyl; configuration not given here)	103	69	74	91	0	34	105	65	3	–	–	–	–
COc1ccc(CNC(=O)C(CCCNC(=N)N)NC(=O)C2CCCN2C(=O)C(C)N)cc1 (stereo not shown) [4.8]	85	37	132	84	90	78	100	58	32	–	–	–	–
